In general, IC50 refers to the concentration needed to halve the response being measured.

Assay [1] relates to USP-2 and UCH-L3. The assay can be described thus: Downscaling: compatibility of the deubiquitinase assay with HBC and DMSO. The class given is biochemical, human. The method, then:
One important factor which has to be tested during downscaling of the assay to the […] (2080 well nanoplates) is the assay's compatibility with hydroxy beta cyclodextrin (HBC) and DMSO. Nanocarriers are coated with HBC in order facilitate re-solubilization of dried test compounds (‘dry screening’) and to reduce adsorption of assay components to the carrier. If HBC interferes with the assay, pre-coated plates can not be used and ‘wet screening’, utilizing compounds dissolved in DMSO, has to be performed. […] Even DMSO concentrations of up to 5% are found to be compatible with the screen. […] These findings support a ‘wet screening’ format for these target family.

Assay [2] relates to USP-2 and UCH-L3. The assay can be described thus: Inhibition of the deubiquitinases (titration of inhibitor, fluorescence polarization assay). The class given is biochemical, human. Particulars: in presence of 5 mM DTT. The method, then:
Measurements of polarization and lifetime are performed on the research reader of Evotec OAI (see below). To perform the test, the de-ubiquitinating enzyme is first put into the well and the addition of the substrate triggered the start of the reaction. The enzymatic reaction is stopped by shifting the pH from 7.5 to 5 with the addition of Stop buffer (end concentration of 30 mM malonic acid pH 4.5—see TABLE 1). With this procedure the read-out could be kept stable for several hours.
Cysteine proteases, such as USP-2 and UCH-L3, are sensitive to covalent modification of the active site cystein. […] Ubiquitin aldehyde is a known inhibitor for both enzymes, USP-2 and UCH-L3. […] Using this molecule we analyzed whether addition of DTT can be utilized to mask the activity of covalent active site inhibitors during the screen. When titrating Ubiquitin aldehyde in presence of 5 mM DTT an IC50 value of 100 nM was found.
Background: Polarisation of emitted light reports the rotation of a fluorescent probe.

For assay [3], the system named is USP-2 and UCH-L3. Particulars: in absence of reducing agent; cited from earlier work.

With `C[S+](C)[O-]` [DMSO], the “Concentration compatible with the screen” value in assay [1] is listed as “up to 5%”. For the same molecule, in assay [1] (increasing concentrations added to the assay), the “Interference with the reaction” value was “only a minimal interference”. On to Ubiquitin aldehyde, for which the IC50 in assay [2] was 100 nM. The Potency entry in assay [3] is listed as “pM activity range”. For hydroxy beta cyclodextrin [HBC], the “Effect on enzymatic activity” value in assay [1] (HBC added to the assay) was “a reduction of the enzymatic activity was observed”.

The values are drawn from patent US20080038768A1, “Assay for ubiquitin mediated proteolysis” (priority 2006, published 2008).
